Consider one compound from US9261498B2, “Biomarker for sensitivity to mTOR inhibitor therapy in kidney cancer” (The Regents of the University of California, priority 2005, dated 2016).

For the test, the system named is HIF-2α. The experiment in a line: Immunoblot of HIF-2α protein in VHL knockdown RCC cells. The following applies: 1 and 10 nM CCI-779, 24 hours. The format is cell-based, human. As to the method:
(a) SN12C-CSCG and SN12C-VHLshRNA cell were treated with vehicle, 1 nM or 10 nM of CCI-779 and lysed 24 hours later. Lysates were subjected to immunoblotting for HIF-1α, HIF-2α, GLUT-1, CA-IX, p-eIF4G, p-S6 Ribosomal protein. Equal protein loading was verified using anti-β-actin antibody. (b) HIF-1α expression was probed by immunoblotting in SN12C-MSCV-5′TOP-HIF-1α cDNA (left panel) and SN12C-MSCV-HIF-1α cDNA (tight panel) post 24 hours of vehicle, 1 nM or 10 nM of CCI-779.
Cells and xenograft tumors were lysed in ECB lysis buffer (see, e.g. Kondo et al., Cancer Cell 1, 237-46 (2002)) or high-detergent buffer (2% SDS), (see, e.g. Chen et al., Nat Med 10, 33-9 (2004)), respectively, supplemented with complete protease and phosphatase inhibitor cocktails (Calbiochem). […] Bound antibody was detected using enhanced chemiluminescence (ECL, Amersham). For VEGF ELISA quantification, cells were plated in 6 well plates (1×10^5 per well). […] Thirty-six hours later, VEGF ELISA (R&D Systems) was performed according to the manufacturer's instructions, using a Fisher Plate reader. […]
Cells and xenograft tumors were lysed in ECB lysis buffer or high-detergent buffer (2% SDS), respectively, supplemented with complete protease and phosphatase inhibitor cocktails (Calbiochem). […] Bound antibody was detected using enhanced chemiluminescence (ECL, Amersham). […]
(In western blotting, separated proteins are transferred to a membrane and probed.)

“Also recorded” adds a separate entry of the source.

As to `CO[C@H]1C[C@@H]2CC[C@@H](C)[C@@](O)(O2)C(=O)C(=O)N2CCCC[C@H]2C(=O)O[C@H]([C@H](C)C[C@@H]2CC[C@@H](OC(=O)C(C)(CO)CO)[C@H](OC)C2)CC(=O)[C@H](C)/C=C(\C)[C@@H](O)[C@@H](OC)C(=O)[C@H](C)C[C@H](C)/C=C/C=C/C=C/1C` [CCI-779], the HIF-2α protein levels result was “dramatically reduced; also recorded: reduction; also recorded: decrease”.
